Consider two substances from patent publication US9006150B2, “Structural nucleic acid guided chemical synthesis” (Vipergen ApS, priority 2004, dated 2015).

Entries after “also recorded” stand apart in the source; their conditions may differ.

Assay [1] concerns W6/32 monoclonal antibody.
For assay [2], the system named is 3E7 anti Leu-enkephalin monoclonal antibody. The class given is binding.

Regarding Tyr-Gly-Gly-Phe-Leu-DNA [R1 product], the “gel-shifted band with IgG2A isotype matched negative control antibody” value in assay [1] is listed as “absent”. The “binding to 3E7 antibody (gel-shifted band)” value in assay [2] is listed as “binding to 3E7 antibody; also recorded: specific binding”. On to “Gly-Leu-Phe-Tyr-Gly-DNA (GLFYG; DNA conjugate; printed: Gly-Leu-Phe-Tyr-Gly-) [R2 product, Structural DNA display product with scrambled Leu-enkephalin, negative control for the partitioning assay]”, for which, in assay [2], the “binding to 3E7 antibody (gel-shifted band)” value is recorded as “does not bind to 3E7”.
